Measured values as given in patent US10167262B2, “Herbicidal substituted 3-arylpyrazoles” (FMC CORPORATION, priority 2014, dated 2019).

Key:
Type in all cases: in vivo
[1] = test system: barnyardgrass (Echinochloa crus-galli); test: Test B flooded paddy test, plant response rating 0-100; conditions: Flood, 250 g ai/ha; scale 0 to 100 (0 no effect, 100 complete control); 13 to 15 days
Summary of the method: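 Visual injury ratings against untreated controls, taken 13 to 15 days after compound was added to paddy water standing 3 cm above the soil.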

[2] = test system: Brazilian crabgrass (Digitaria horizontalis); test: Test E pre-/postemergence greenhouse test, plant response rating 0-100; conditions: Postemergence, scale 0 to 100
Summary of the method: (§1)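 Visual control score, 0–100 relative to untreated plants, recorded 14–21 days after spraying. Treatments: preemergence on silt loam seedbeds and postemergence at the 1- to 4-leaf stage, with compound in surfactant-containing solvent.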

[3] = test system: Italian ryegrass (Lolium multiflorum); test: as above; conditions: scale 0 to 100; for Plant response rating, Ryegrass, Italian: Postemergence; for Ryegrass, Italian plant response rating: Preemergence
Summary of the method: as §1

[4] = test system: arrowleaf sida (Sida rhombifolia); test: as above; conditions: for Plant response rating, Arrowleaf Sida: Postemergence; for Arrowleaf Sida plant response rating: Preemergence
Summary of the method: as §1

[5] = test system: barnyardgrass (Echinochloa crus-galli); test: as above; conditions: scale 0 to 100; for Plant response rating, Barnyardgrass: Postemergence; for Barnyardgrass plant response rating: Preemergence
Summary of the method: as §1

corn (Zea mays) = test: as above; conditions: scale 0 to 100; for Plant response rating, Corn: Postemergence; for Corn plant response rating: Preemergence
Summary of the method: as §1

[6] = test system: dayflower (Virginia (VA) dayflower, Commelina virginica); test: as above; conditions: scale 0 to 100; for Plant response rating, Dayflower, VA: Postemergence; for Dayflower, VA plant response rating: Preemergence
Summary of the method: as §1

[7] = test system: fall panicum (Panicum dichotomiflorum); test: as above; conditions: scale 0 to 100; for Plant response rating, Panicum, Fall: Postemergence; for Panicum, Fall plant response rating: Preemergence
Summary of the method: as §1

[8] = test system: hairy beggarticks (Bidens pilosa); test: as above; conditions: scale 0 to 100; for Plant response rating, Beggarticks: Postemergence; for Beggarticks plant response rating: Preemergence
Summary of the method: as §1

[9] = test system: palmer pigweed (Amaranthus palmeri); test: as above; conditions: scale 0 to 100; for Plant response rating, Pigweed, Palmer: Postemergence; for Pigweed, Palmer plant response rating: Preemergence
Summary of the method: as §1

[10] = test system: sandbur (southern sandbur, Cenchrus echinatus); test: as above; conditions: scale 0 to 100; for Plant response rating, Sandbur: Postemergence; for Sandbur plant response rating: Preemergence
Summary of the method: as §1

[11] = test system: wild poinsettia (Euphorbia heterophylla); test: as above; conditions: scale 0 to 100; for Plant response rating, Poinsettia, Wild: Postemergence; for Poinsettia, Wild plant response rating: Preemergence
Summary of the method: as §1

With `O=C(c1ccccc1)c1cn(S(=O)(=O)CC(F)(F)F)nc1-c1cc(Cl)cc(Cl)c1` [Compound 3] the “Plant response rating, Barnyardgrass” value [1] was 0, the “Plant response rating, Crabgrass, Brazil” value ([2]; 31 g ai/ha) was 0 and the “Plant response rating, Crabgrass, Brazil” value ([2]; 62 g ai/ha) was 0. The “Plant response rating, Crabgrass, Brazil” value ([2]; 125 g ai/ha) was 0, the “Plant response rating, Crabgrass, Brazil” value ([2]; 250 g ai/ha) was 0 and the “Plant response rating, Crabgrass, Brazil” value ([2]; 500 g ai/ha) was 0. The “Plant response rating, Ryegrass, Italian” value ([3]; 31 g ai/ha) was 0, the “Plant response rating, Ryegrass, Italian” value ([3]; 62 g ai/ha) was 0 and the “Plant response rating, Ryegrass, Italian” value ([3]; 125 g ai/ha) was 0. For the same molecule, the “Plant response rating, Ryegrass, Italian” value ([3]; 250 g ai/ha) was 0, the “Plant response rating, Ryegrass, Italian” value ([3]; 500 g ai/ha) was 0 and the “Ryegrass, Italian plant response rating” value ([3]; 31 g ai/ha) was 0. The “Ryegrass, Italian plant response rating” value ([3]; 62 g ai/ha) was 0, the “Ryegrass, Italian plant response rating” value ([3]; 125 g ai/ha) was 0 and the “Ryegrass, Italian plant response rating” value ([3]; 250 g ai/ha) was 0. For the same molecule, the “Ryegrass, Italian plant response rating” value ([3]; 500 g ai/ha) was 0, the “Plant response rating, Arrowleaf Sida” value ([4]; 31 g ai/ha, scale 0 to 100) was 85 and the “Plant response rating, Arrowleaf Sida” value ([4]; 62 g ai/ha, scale 0 to 100) was 95. The “Plant response rating, Arrowleaf Sida” value ([4]; 125 g ai/ha, scale 0 to 100) was 90, the “Plant response rating, Arrowleaf Sida” value ([4]; 250 g ai/ha, scale 0 to 100) was 95 and the “Plant response rating, Arrowleaf Sida” value ([4]; 500 g ai/ha, scale 0 to 100 (0 no effect, 100 complete control)) was 98. For the same molecule, the “Arrowleaf Sida plant response rating” value ([4]; 31 g ai/ha, scale 0 to 100) was 0, the “Arrowleaf Sida plant response rating” value ([4]; 62 g ai/ha, scale 0 to 100) was 40 and the “Arrowleaf Sida plant response rating” value ([4]; 125 g ai/ha, scale 0 to 100) was 70. For the same molecule, the “Arrowleaf Sida plant response rating” value ([4]; 250 g ai/ha, scale 0 to 100) was 90, the “Arrowleaf Sida plant response rating” value ([4]; 500 g ai/ha, scale 0 to 100) was 98 and the “Plant response rating, Barnyardgrass” value ([5]; 31 g ai/ha) was 0. The “Plant response rating, Barnyardgrass” value ([5]; 62 g ai/ha) was 0, the “Plant response rating, Barnyardgrass” value ([5]; 125 g ai/ha) was 0 and the “Plant response rating, Barnyardgrass” value ([5]; 250 g ai/ha) was 0. The “Plant response rating, Barnyardgrass” value ([5]; 500 g ai/ha) was 0, the “Barnyardgrass plant response rating” value ([5]; 31 g ai/ha) was 0 and the “Barnyardgrass plant response rating” value ([5]; 62 g ai/ha) was 0. The “Barnyardgrass plant response rating” value ([5]; 125 g ai/ha) was 0, the “Barnyardgrass plant response rating” value ([5]; 250 g ai/ha) was 0 and the “Barnyardgrass plant response rating” value ([5]; 500 g ai/ha) was 0. The “Plant response rating, Corn” value (corn (Zea mays); 31 g ai/ha) was 0, the “Plant response rating, Corn” value (corn (Zea mays); 62 g ai/ha) was 0 and the “Plant response rating, Corn” value (corn (Zea mays); 125 g ai/ha) was 0. For the same molecule, the “Plant response rating, Corn” value (corn (Zea mays); 250 g ai/ha) was 0, the “Plant response rating, Corn” value (corn (Zea mays); 500 g ai/ha) was 0 and the “Corn plant response rating” value (corn (Zea mays); 31 g ai/ha) was 0. The “Corn plant response rating” value (corn (Zea mays); 62 g ai/ha) was 0, the “Corn plant response rating” value (corn (Zea mays); 125 g ai/ha) was 0 and the “Corn plant response rating” value (corn (Zea mays); 250 g ai/ha) was 0. The “Corn plant response rating” value (corn (Zea mays); 500 g ai/ha) was 0, the “Plant response rating, Dayflower, VA” value ([6]; 31 g ai/ha) was 0 and the “Plant response rating, Dayflower, VA” value ([6]; 62 g ai/ha) was 0. For the same molecule, the “Plant response rating, Dayflower, VA” value ([6]; 125 g ai/ha) was 0, the “Plant response rating, Dayflower, VA” value ([6]; 250 g ai/ha) was 0 and the “Plant response rating, Dayflower, VA” value ([6]; 500 g ai/ha) was 0. The “Dayflower, VA plant response rating” value ([6]; 125 g ai/ha) was 0, the “Dayflower, VA plant response rating” value ([6]; 250 g ai/ha) was 0 and the “Dayflower, VA plant response rating” value ([6]; 500 g ai/ha) was 0. For the same molecule, the “Plant response rating, Panicum, Fall” value ([7]; 31 g ai/ha) was 0, the “Plant response rating, Panicum, Fall” value ([7]; 62 g ai/ha) was 0 and the “Plant response rating, Panicum, Fall” value ([7]; 125 g ai/ha) was 0. For the same molecule, the “Plant response rating, Panicum, Fall” value ([7]; 250 g ai/ha) was 0, the “Plant response rating, Panicum, Fall” value ([7]; 500 g ai/ha) was 0 and the “Panicum, Fall plant response rating” value ([7]; 31 g ai/ha) was 0. The “Panicum, Fall plant response rating” value ([7]; 62 g ai/ha) was 0, the “Panicum, Fall plant response rating” value ([7]; 125 g ai/ha) was 0 and the “Panicum, Fall plant response rating” value ([7]; 250 g ai/ha) was 0. For the same molecule, the “Panicum, Fall plant response rating” value ([7]; 500 g ai/ha) was 0, the “Plant response rating, Beggarticks” value ([8]; 31 g ai/ha) was 60 and the “Plant response rating, Beggarticks” value ([8]; 62 g ai/ha) was 95. For the same molecule, the “Plant response rating, Beggarticks” value ([8]; 125 g ai/ha) was 98, the “Plant response rating, Beggarticks” value ([8]; 250 g ai/ha) was 98 and the “Plant response rating, Beggarticks” value ([8]; 500 g ai/ha) was 98. The “Beggarticks plant response rating” value ([8]; 31 g ai/ha) was 0, the “Beggarticks plant response rating” value ([8]; 62 g ai/ha) was 0 and the “Beggarticks plant response rating” value ([8]; 125 g ai/ha) was 25. The “Beggarticks plant response rating” value ([8]; 250 g ai/ha) was 25, the “Beggarticks plant response rating” value ([8]; 500 g ai/ha) was 30 and the “Plant response rating, Pigweed, Palmer” value ([9]; 31 g ai/ha) was 40. The “Plant response rating, Pigweed, Palmer” value ([9]; 62 g ai/ha) was 50, the “Plant response rating, Pigweed, Palmer” value ([9]; 125 g ai/ha) was 75 and the “Plant response rating, Pigweed, Palmer” value ([9]; 250 g ai/ha) was 90. For the same molecule, the “Plant response rating, Pigweed, Palmer” value ([9]; 500 g ai/ha) was 75, the “Pigweed, Palmer plant response rating” value ([9]; 31 g ai/ha) was 0 and the “Pigweed, Palmer plant response rating” value ([9]; 62 g ai/ha) was 20. For the same molecule, the “Pigweed, Palmer plant response rating” value ([9]; 125 g ai/ha) was 65, the “Pigweed, Palmer plant response rating” value ([9]; 250 g ai/ha) was 50 and the “Pigweed, Palmer plant response rating” value ([9]; 500 g ai/ha) was 100. The “Plant response rating, Sandbur” value ([10]; 31 g ai/ha) was 0, the “Plant response rating, Sandbur” value ([10]; 62 g ai/ha) was 0 and the “Plant response rating, Sandbur” value ([10]; 125 g ai/ha) was 0. The “Plant response rating, Sandbur” value ([10]; 250 g ai/ha) was 0, the “Plant response rating, Sandbur” value ([10]; 500 g ai/ha) was 0 and the “Sandbur plant response rating” value ([10]; 31 g ai/ha) was 0. For the same molecule, the “Sandbur plant response rating” value ([10]; 62 g ai/ha) was 0, the “Sandbur plant response rating” value ([10]; 125 g ai/ha) was 15 and the “Sandbur plant response rating” value ([10]; 250 g ai/ha) was 15. For the same molecule, the “Sandbur plant response rating” value ([10]; 500 g ai/ha) was 90, the “Plant response rating, Poinsettia, Wild” value ([11]; 31 g ai/ha) was 0 and the “Plant response rating, Poinsettia, Wild” value ([11]; 62 g ai/ha) was 0. The “Plant response rating, Poinsettia, Wild” value ([11]; 125 g ai/ha) was 0, the “Plant response rating, Poinsettia, Wild” value ([11]; 250 g ai/ha) was 15 and the “Plant response rating, Poinsettia, Wild” value ([11]; 500 g ai/ha) was 10. The “Poinsettia, Wild plant response rating” value ([11]; 125 g ai/ha) was 0, the “Poinsettia, Wild plant response rating” value ([11]; 250 g ai/ha) was 0 and the “Poinsettia, Wild plant response rating” value ([11]; 500 g ai/ha) was 0.
